# According to US12065407B2, “Dual acting FKBP12 and FKBP52 inhibitors” (PLEX PHARMACEUTICALS, INC., priority 2017, dated 2024):
# “And” between values parts separate entries of the source, which are not always exact repeats. Equal entries are not always repeated. Where two headings read alike, the source gives them in different places.
# Columns and labels:
# WT21 cells = assay: Cytotoxicity to WT21 cells (MTS tetrazolium dye reduction); format: cell-based, human; conditions: concentrations under 50 μM
# [1] = tested on: A53T mutant α-synuclein overexpressing BE(2)-M17 cells (M3.2); assay: Neuroprotection in A53T mutant α-synuclein overexpressing BE(2)-M17 cells (M3.2); format: cell-based, human; conditions: for Neuroprotection (cell viability): A53T mutant α-synuclein cells (M3.2), Alamar Blue assay
# Protocol: (§1) BE(2)-M17 human neuroblastoma cells engineered to stably express either wild type or A53T mutant α-synuclein, PC12 rat pheochromocytoma, or SH-SY5Y human neuroblastoma cells were cultured in 96-well cell culture dishes in a humidified incubator at 37° C., 5% CO2. The growth medium was supplemented with 0.1% dimethyl sulfoxide (vehicle control) or compounds dissolved in dimethyl sulfoxide. Following 2 hours of exposure to compounds, the growth medium was further supplemented with 6-hydroxydopamine (or 0.1% ascorbic acid vehicle control) and incubated for an additional 24-48 hours.
# (§2) See FIGS. 1A and 1B for neuroprotection observed in PC12 cells treated with dual acting FKBP12 and FKBP52 inhibitory exemplary compounds CAP01687 (FIG. 1A) and CAP01693 (FIG. 1B) measured using WST-8 assay. Specifically, FIGS. 1A and 1B, show relative percent protection from 6-OHDA, the vehicle control being set to 0% relative protection. […] Neuroprotection was also observed in A53T mutant α-synuclein overexpressing BE(2)-M17 cells (M3.2) treated with CAP01687 (FIG. 3B). The bars in FIGS. 3A and 3B depict relative percent fluorescence, which is proportional to cell viability, with the vehicle control being 100%.]
# as §1, with “pheochromocytoma cells,” for “pheochromocytoma,”, “C. and” for “C.,”, “(OHDA) or” for “(or”, “hours. […]” for “hours.”
# PC12 cells = assay: Neurite outgrowth; format: cell-based, rat; conditions: light microscopy, bar graph
# Protocol: PC12 rat pheochromocytoma or SH-SY5Y human neuroblastoma cells were grown on glass coverslips in a 24-well cell culture dish in a humidified incubator at 37° C., 5% CO2. After 24 hours, the cells were washed with phosphate buffered saline and the serum concentration of the growth medium was reduced to 0.2%. After 16 hours in the reduced serum medium, 0.1% dimethyl sulfoxide (vehicle control) or compounds dissolved in dimethyl sulfoxide were added to the growth medium. Following 2 hours of exposure to compounds, the growth medium was supplemented with 6-hydroxydopamine (or 0.1% ascorbic acid vehicle control), nerve growth factor (or phosphate-buffered saline vehicle control), in addition to 0.1% dimethyl sulfoxide (vehicle control) or compounds dissolved in dimethyl sulfoxide. […] Phase contrast images were captured at 20× magnification and the percentage of cells with neurites longer than 20 μm were scored for approximately 200 cells in each condition using ImageJ software.
# PC12 rat pheochromocytoma or SH-SY5Y human neuroblastoma cells were grown on glass coverslips in a 24-well cell culture dish in a humidified incubator at 37° C. and 5% CO2. […] Phase contrast images were captured at 20× magnification and the percentage of cells with neurites longer than 20 μm were scored for approximately 200 cells in each condition using ImageJ software.
# [2] = tested on: wild type α-synuclein overexpressing BE(2)-M17 cells (WT21); assay: Neuroprotection in wild type α-synuclein overexpressing BE(2)-M17 cells (WT21); format: cell-based, human; conditions: Alamar Blue assay
# Protocol: as §1
# as §2, with “Cell viability was measured by reduction of WST-8 or AlamarBlue® and the relative protection from 6-hydroxydopamine was measured by calculating the percentage of viable cells normalized to 6-hydroxydopamine treated cells in the absence of compound. See” for “See”
# BE(2)-M17 human neuroblastoma cells engineered to stably express either wild type or A53T mutant α-synuclein, PC12 rat pheochromocytoma cells, or SH-SY5Y human neuroblastoma cells were cultured in 96-well cell culture dishes in a humidified incubator at 37° C. and 5% CO2. The growth medium was supplemented with 0.1% dimethyl sulfoxide (vehicle control) or compounds dissolved in dimethyl sulfoxide. […]
# Cell viability was measured by reduction of WST-8 or alamarBlue® and the relative protection from 6-hydroxydopamine was measured by calculating the percentage of viable cells normalized to 6-hydroxydopamine treated cells in the absence of compound.
# [3] = Microsomal stability (Clint assay), rat liver microsome; format: in vitro ADME; conditions: male, Sprague-Dawley, liver microsomes, pH 7.4, 1 μM compound, 0.5 mg/mL protein, 1 mM NADPH, 37° C.; for microsomal CLint at 1 μM: read-out: Clearance CL int (rat microsomes); for half-life at 1 μM: read-out: Rat microsomes T1/2
# Protocol: (§3) Microsomal stability measurements were carried out by Clint assay. Test compounds were incubated with liver microsome, and metabolic stability was determined over 45 minutes. The experimental conditions were as follows. […]
# [4] = Microsomal stability (Clint assay), human liver microsome; format: in vitro ADME; conditions: both sexes, liver microsomes, pH 7.4, 1 μM compound, 0.5 mg/mL protein, 1 mM NADPH, 37° C.; for microsomal CLint at 1 μM: read-out: Clearance CL int (human microsomes); for half-life at 1 μM: read-out: Human microsomes T1/2
# Protocol: as §3
# [5] = Distribution of inhibitors in plasma and brain after intravenous dosing of mice; format: in vivo; conditions: 1 mg/kg IV; for Plasma Concentrations, mean: n = 5; for concentration at 1 h / concentration at 0.15 h / concentration at 0.5 h: male, CD1, mouse, iv, 1 mg/kg
# Protocol: Distribution of inhibitors in plasma and brain tissue was examined after intravenous dosing of mice with inhibitors. The experimental conditions were as follows: Mice: male CD1 about 8 weeks old; body weight: about 25 g; No. of groups: one; No. of animals per group: 5; vehicle for IV dosing: DMSO; dosage: 1 mg/kg.
# Plasma samples were separated by centrifugation in presence of K2-EDTA as anticoagulant. Brain tissue were homogenized in phosphate buffer saline and processed for bioanalysis as per standard practice. Samples were analyzed by a discovery grade bio-analytical method using LC-MS/MS method.
# [6] = tested on: PC12 rat pheochromocytoma cells; assay: Neuroprotection from 6-hydroxydopamine in PC12 cells (WST-8); format: cell-based; conditions: WST-8 assay, FIG. 1
# Protocol: as §1
# Cell viability was measured by reduction of WST-8 or AlamarBlue® and the relative protection from 6-hydroxydopamine was measured by calculating the percentage of viable cells normalized to 6-hydroxydopamine treated cells in the absence of compound. See FIGS. 1A and 1B for neuroprotection observed in PC12 cells treated with dual acting FKBP12 and FKBP52 inhibitory exemplary compounds CAP01687 (FIG. 1A) and CAP01693 (FIG. 1B) measured using WST-8 assay. Specifically, FIGS. 1A and 1B, show relative percent protection from 6-OHDA, the vehicle control being set to 0% relative protection. […] The bars in FIGS. 3A and 3B depict relative percent fluorescence, which is proportional to cell viability, with the vehicle control being 100%.] […]
# [7] = brain, 1 h, n = 5, read-out: Brain concentrations, mean
# [8] = plasma, 0.15 h, n = 5, read-out: Plasma Concentrations, mean
# [9] = plasma, 0.5 h, n = 5, read-out: Plasma Concentrations, mean
# [10] = plasma, 0.5 h, read-out: Plasma Concentrations, individual animals
# [11] = plasma, 1 h, n = 5, read-out: Plasma Concentrations, mean
# [12] = plasma, 1 h, read-out: Plasma Concentrations, individual animals
compound,measurement,setting,value
COc1ccc(/N=N/c2nc3ccccc3n2C)c2ccccc12 [CAP01324],"Cytotoxicity (relative change in absorbance, MTS)",WT21 cells,not cytotoxic
same,"Neuroprotection (relative change in absorbance, MTS)","[1]; A53T mutant cells, 100 nM, MTS tetrazolium dye",neuroprotection
CCn1c(/C=C/c2ccc(Cl)cc2)nc2ccccc21 [CAP01510],Neurite outgrowth (percentage of cells with neurites longer than 20 μm),PC12 cells,dose dependent promotion of neurite outgrowth
"Cc1ccc(Cn2c(/C=C/c3ccc(F)cc3)nc3ccccc32)cc1 [CAP01551, 2-[2-(4-fluorophenyl)vinyl]-1-(4-methylbenzyl)-1H-benzimidazole]",Neuroprotection (cell viability),[2],neuroprotection
same,microsomal CLint at 1 μM,[3],202 µL/min/mg
same,half-life at 1 μM,[3],6.85 min
same,microsomal CLint at 1 μM,[4],52.4 µL/min/mg
same,half-life at 1 μM,[4],26.4 min
same,"Plasma Concentrations, individual animals",[5]; 0.15 h,217.36 ng/mL and 295.33 ng/mL and 122.46 ng/mL and 203.22 ng/mL and 134.60 ng/mL
same,"Plasma Concentrations, mean",[5]; 0.15 h,0.19459 µg/mL
same,"Plasma Concentrations, individual animals",[5]; 0.5 h,88.98 ng/mL and 46.31 ng/mL and 62.88 ng/mL and 56.74 ng/mL
same,"Plasma Concentrations, mean",[5]; 0.5 h,0.06536 µg/mL
same,"Brain concentrations, individual animals",[5]; 1 h,81.88 ng/G and 57.91 ng/G and 63.84 ng/G and 74.50 ng/G
same,"Plasma Concentrations, individual animals",[5]; 1 h,52.86 ng/mL (2×) and 27.45 ng/mL (2×) and 27.24 ng/mL (2×) and 27.74 ng/mL (2×) and 33.70 ng/mL
same,"Plasma Concentrations, mean",[5]; 1 h,0.0338 µg/mL
same,concentration at 1 h,[5]; [7],70.4 ng/g
same,concentration at 1 h,"[5]; brain, 1 h, read-out: Brain concentrations, individual animals",73.8 ng/g
same,concentration at 0.15 h,[5]; [8],0.195 ± 0.0699 µg/mL
same,concentration at 0.5 h,[5]; [9],0.0654 ± 0.0162 µg/mL
same,concentration at 0.5 h,[5]; [10],0.0719 µg/mL
same,concentration at 1 h,[5]; [11],0.0338 ± 0.011 µg/mL
same,concentration at 1 h,[5]; [12],0.0337 µg/mL
CC(C)CCn1c(/C=C/c2ccc(F)cc2)nc2ccccc21 [CAP01559],Neuroprotection (cell viability),[2],neuroprotection
same,Neuroprotection (cell viability),[1],neuroprotection
O=C(N[C@@H](Cc1ccc(Cl)cc1)C(=O)NCCCc1ccccc1)c1ccc2cc(F)ccc2c1 [CAP01687],Neuroprotection (relative percent protection from 6-OHDA),[6],neuroprotection
same,Neuroprotection (cell viability),[2],neuroprotection
same,Neuroprotection (cell viability),[1],neuroprotection
same,Neurite outgrowth (percentage of cells with neurites longer than 20 μm),PC12 cells,promotion of neurite outgrowth
"O=C(N[C@@H](Cc1ccc(Cl)cc1)C(=O)NCCCc1cccnc1)c1ccc2cc(F)ccc2c1 [CAP01693, (2S)-3-(4-chlorophenyl)-2-[(6-fluoronaphthalen-2-yl)-formamido]-N-[3-(pyridine-3-yl)propyl]propanamide]",Neuroprotection (relative percent protection from 6-OHDA),[6],neuroprotection
"O=C(N[C@H](C(=O)NCCCc1ccccc1)c1ccccc1)c1ccc2cc(F)ccc2c1 [CAP01723, (2S)-2-[(6-fluoronaphthalen-2-yl)formamido]-2-phenyl-N-(3-phenylpropyl)acetamide]",microsomal CLint at 1 μM,[3],130 µL/min/mg
same,half-life at 1 μM,[3],10.7 min
same,microsomal CLint at 1 μM,[4],167 µL/min/mg
same,half-life at 1 μM,[4],8.29 min
same,"Plasma Concentrations, individual animals",[5]; 0.15 h,258.2 ng/mL and 225.3 ng/mL and 225.4 ng/mL and 244.2 ng/mL
same,"Plasma Concentrations, mean",[5]; 0.15 h,0.2397 µg/mL
same,"Plasma Concentrations, individual animals",[5]; 0.5 h,106.1 ng/mL and 97.6 ng/mL and 102.6 ng/mL and 93.2 ng/mL
same,"Plasma Concentrations, mean",[5]; 0.5 h,0.1005 µg/mL
same,"Brain concentrations, individual animals",[5]; 1 h,17.2 ng/G and 14.6 ng/G and 31.9 ng/G and 9.5 ng/G and 22.3 ng/G
same,"Plasma Concentrations, individual animals",[5]; 1 h,41.1 ng/mL (2×) and 58.7 ng/mL (2×) and 53.5 ng/mL (2×) and 45.4 ng/mL (2×) and 50.3 ng/mL
same,"Plasma Concentrations, mean",[5]; 1 h,0.0498 µg/mL
same,concentration at 1 h,[5]; [7],19.1 ng/g
same,concentration at 0.15 h,[5]; [8],0.24 ± 0.0142 µg/mL
same,concentration at 0.15 h,"[5]; plasma, 0.15 h, read-out: Plasma Concentrations, individual animals",0.246 µg/mL
same,concentration at 0.5 h,[5]; [9],0.101 ± 0.0051 µg/mL
same,concentration at 0.5 h,[5]; [10],0.103 µg/mL
same,concentration at 1 h,[5]; [11],0.0498 ± 0.0068 µg/mL
same,concentration at 1 h,[5]; [12],0.0503 µg/mL
